Legend:
hTLR8 = target: T1, hTLR8 (Homo sapiens, UniProt Q9NR97); assay: IL-8 production in 293 fibroblasts transiently expressing hTLR8; assay type: cell-based; conditions: CpG-ODN 2 μM, LPS 100 ng/ml
T1 construct: plasmids (pcDNA3.1 constructs) coding for full length hTLR2, hTLR7, hTLR8 and hTLR9; expressed in transfected cells; host or cells: 293T cells
T1 sequence (Q9NR97 27-1041): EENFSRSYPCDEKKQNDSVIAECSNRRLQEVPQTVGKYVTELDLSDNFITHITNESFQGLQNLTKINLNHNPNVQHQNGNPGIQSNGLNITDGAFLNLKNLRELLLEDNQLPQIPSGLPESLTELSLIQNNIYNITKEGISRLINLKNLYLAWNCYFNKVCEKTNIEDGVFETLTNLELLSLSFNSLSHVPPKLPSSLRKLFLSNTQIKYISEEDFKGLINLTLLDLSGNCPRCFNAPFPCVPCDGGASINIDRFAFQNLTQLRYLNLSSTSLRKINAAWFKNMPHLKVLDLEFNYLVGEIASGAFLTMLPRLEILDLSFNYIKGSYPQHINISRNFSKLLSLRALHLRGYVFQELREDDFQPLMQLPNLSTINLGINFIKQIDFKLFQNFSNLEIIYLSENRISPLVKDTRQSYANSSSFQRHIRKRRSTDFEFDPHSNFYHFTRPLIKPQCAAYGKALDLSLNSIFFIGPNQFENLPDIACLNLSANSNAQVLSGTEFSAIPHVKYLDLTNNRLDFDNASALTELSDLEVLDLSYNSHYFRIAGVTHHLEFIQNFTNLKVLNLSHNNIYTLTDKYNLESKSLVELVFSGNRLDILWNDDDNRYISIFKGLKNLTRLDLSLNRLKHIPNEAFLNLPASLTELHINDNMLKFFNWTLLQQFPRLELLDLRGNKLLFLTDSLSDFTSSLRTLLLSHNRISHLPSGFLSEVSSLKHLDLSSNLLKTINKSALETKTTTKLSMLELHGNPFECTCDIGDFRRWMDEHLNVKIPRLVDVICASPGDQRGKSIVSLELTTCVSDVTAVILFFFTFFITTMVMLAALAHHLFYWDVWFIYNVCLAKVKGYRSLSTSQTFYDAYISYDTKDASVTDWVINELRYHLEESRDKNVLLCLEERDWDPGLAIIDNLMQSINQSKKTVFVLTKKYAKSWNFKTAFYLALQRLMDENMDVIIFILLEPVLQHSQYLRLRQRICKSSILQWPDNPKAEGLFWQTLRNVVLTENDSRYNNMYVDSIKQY
Description: The cloned human TLR7 and human TLR8 cDNA were cloned into the expression vector pCDNA3. 1 (−) from Invitrogen using the NotI site. Utilizing a “gain of function” assay, hTLR7 and hTLR8 expression vectors were transiently expressed in human 293 fibroblasts (ATCC, CRL-1573) using the calcium phosphate method. Activation was monitored by IL-8 production after stimulus with CpG-ODN (2006 or 1668, 2 μM) or LPS (100 ng/ml).

hTLR9 = target: T2, hTLR9 (Homo sapiens, UniProt Q9NR96, H530R/Q688R); assay: NF-kappa B luciferase activation in stably transfected 293-TLR9-Luc cells; assay type: cell-based
T2 construct: 293-TLR9-Luc cells contain a genomic copy of the hTLR9 open reading frame and the NF-kappa B-luciferase cassette; expressed in transfected cells; host or cells: 293-TLR9-Luc (stably transfected human embryo kidney 293 cells)
T2 sequence (Q9NR96 26-1032 H530R/Q688R): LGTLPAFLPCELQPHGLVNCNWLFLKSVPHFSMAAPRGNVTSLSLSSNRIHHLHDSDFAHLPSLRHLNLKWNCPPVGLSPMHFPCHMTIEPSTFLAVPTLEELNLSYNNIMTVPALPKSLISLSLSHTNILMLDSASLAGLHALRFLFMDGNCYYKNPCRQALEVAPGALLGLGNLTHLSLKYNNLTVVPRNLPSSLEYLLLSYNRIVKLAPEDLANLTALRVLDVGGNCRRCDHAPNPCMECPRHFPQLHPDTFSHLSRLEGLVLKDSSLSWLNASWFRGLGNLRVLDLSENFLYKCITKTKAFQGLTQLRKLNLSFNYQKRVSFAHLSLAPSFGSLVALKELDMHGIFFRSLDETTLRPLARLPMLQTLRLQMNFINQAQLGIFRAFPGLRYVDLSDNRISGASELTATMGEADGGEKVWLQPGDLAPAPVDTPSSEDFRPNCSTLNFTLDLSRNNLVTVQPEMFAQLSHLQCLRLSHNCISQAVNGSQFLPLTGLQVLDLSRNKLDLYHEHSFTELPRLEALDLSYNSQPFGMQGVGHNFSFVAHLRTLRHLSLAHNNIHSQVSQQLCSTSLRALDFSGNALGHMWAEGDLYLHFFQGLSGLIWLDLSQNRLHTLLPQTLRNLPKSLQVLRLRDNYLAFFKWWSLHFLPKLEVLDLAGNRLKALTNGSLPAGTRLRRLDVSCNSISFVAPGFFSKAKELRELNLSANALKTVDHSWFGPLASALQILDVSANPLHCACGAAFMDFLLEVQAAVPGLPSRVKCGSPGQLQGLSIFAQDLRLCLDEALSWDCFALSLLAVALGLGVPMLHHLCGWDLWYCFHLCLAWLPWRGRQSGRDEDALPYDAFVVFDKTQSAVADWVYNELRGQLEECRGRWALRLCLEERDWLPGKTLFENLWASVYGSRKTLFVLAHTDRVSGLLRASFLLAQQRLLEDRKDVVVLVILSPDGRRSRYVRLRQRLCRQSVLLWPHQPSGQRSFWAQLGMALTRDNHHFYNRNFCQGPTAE
Description: Cells used for transfections were 293T (human embryo kidney cells, T-antigen transfected) or 293-TLR9-Luc (stable transfectants, human embryo kidney cells expressing the human TLR9 receptor and containing a genomic NF-kappa B-luciferase cassette).
Stimulation was performed 24 h after transfection. Medium of the cells was reduced to 1 ml (without medium change) and cells were stimulated with indicated amounts of R-848, LPS, ODN 8954, 2006 and IL-1 beta for 16 h.
Cell extracts were prepared by lysing the cells in 100 μl reporter lysis buffer using the freeze-thaw method. NF-kappa B stimulation was measured through luciferase activity (Promega). All data were normalized for beta-gal expression. Stimulation indices were calculated in reference to luciferase activity of medium without addition of ODN.
Since R-848 has immune modulatory properties, this experiment examined whether R-848-mediated immune responses are hTLR9-dependent. Cells stably transfected with hTLR9 and a NF-kappa B reporter construct (293-TLR-Luc cells) were incubated for 16 hours with IL-1, CpG ODN 2006, control non-CpG ODN 1982 (5′ […] 3′, SEQ ID NO:3), or increasing amounts of R-848. NF-kappa B activation was determined by measurement of luciferase activity. Activity is given in x-fold activation compared to luciferase activity in medium control.

Question: For CpG ODN 2006, which “activation monitored by IL-8 production” value (hTLR8) is on record?
Answer: None of the stimuli used activated

Question: And the “NF-kappa B activation (x-fold activation compared to luciferase activity in medium control)” value (hTLR9; 293-TLR-Luc cells, 16 hours, 1 to 12 μg/ml)?
Answer: 10- to 30 fold

Question: And the “hTLR9-mediated NF-kappa B activation (in words)” value (hTLR9; cells expressing hTLR9 alone, 293-TLR-Luc with pcDNA (empty vector))?
Answer: hTLR9-mediated activation of NF-kappa B by CpG ODN 2006

— US20060188913A1, “Methods and products for enhancing immune responses using imidazoquinoline compounds” (University of Iowa Research Foundation, priority 2001, published 2006)
